From patent US7462478B2, “Polynucleotide encoding 2-hydroxyisoflavanone dehydratase and application of the same” (Nihon University, priority 2003, dated 2008)
“And” between values parts separate entries of the source, which are not always exact repeats. Identical values can stand only once.

Key:
[1] = target: T1, recombinant soybean HIDH (2-hydroxyisoflavanone dehydratase) (Glycine max, UniProt Q5NUF3); assay: 2-hydroxyisoflavanone dehydratase assay, recombinant soybean HIDH; format: biochemical; conditions: for Specific activity, Soybean Recombinant protein: purified recombinant protein, rate of isoflavone production, mean ± SD of three experiments
T1 construct: the NdeI-BamHI fragment of soybean cDNA (HIDH) was also subcloned into the corresponding sites of the pET28a; made in house; host or cells: E. coli BL21 (DE3), vector pET28a, purified with HisTrap Kit
T1 sequence (Q5NUF3 1-319): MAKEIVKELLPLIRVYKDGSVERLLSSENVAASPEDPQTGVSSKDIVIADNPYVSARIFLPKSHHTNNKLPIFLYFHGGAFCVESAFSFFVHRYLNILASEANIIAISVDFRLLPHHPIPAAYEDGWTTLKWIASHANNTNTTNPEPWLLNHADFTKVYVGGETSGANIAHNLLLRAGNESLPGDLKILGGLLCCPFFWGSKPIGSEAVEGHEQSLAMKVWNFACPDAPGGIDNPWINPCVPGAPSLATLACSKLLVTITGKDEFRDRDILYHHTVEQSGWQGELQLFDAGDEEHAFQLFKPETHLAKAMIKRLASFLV
Experimental: (§1) An enzyme preparation was added to 2,7,4′-trihydroxyisoflavanone, 2,7-dihydroxy-4′-methoxyisoflavanone, or 2,5,7,4′-tetrahydroxyisoflavanone (5 nmol each) in 2-methoxyethanol so as to be in a total volume of 100 μl, and then the whole was incubated at 30° C. for 10 minutes.
(§2) A concentrated ethyl acetate extract was incubated with recombinant licorice HIDM (1 μg) at 30° C. for 10 minutes. An ethyl acetate extract from the mixture was analyzed by high-performance liquid chromatography (HPLC). The HPLC for both daidzein and formononetin analysis was carried out using a Capcell pak C18 MG column (4.6×150 mm; Shiseido Co., Ltd.) at 40° C. (flow volume=0.8 ml/min) (Non-Patent Document 12) with a linear gradient elution for 40 minutes from 35% to 55% methanol in 3% aqueous acetic acid. 5-Hydroxyisoflavones were analyzed using a Capcell pak C18MG column (4.6×150 mm; Shiseido Co., Ltd.) with a 50% methanol aqueous solution (for genistein) or a 55% methanol aqueous solution (for biochanin A) at 40° C. (flow rate=0.8 ml/min).
(§3) The purified recombinant protein (approximately 10 ng of protein) and cell-free extracts of licorice and soybean (approximately 10 μg of protein) were used to determine their specific activity. The concentration of isoflavone was calculated from the HPL peak area of the standard sample of each of daidzein, formononetin, and genistein.
(§4) The NdeI-BamHI fragment of the PCR product from licorice HIDM was cloned into the corresponding sites of pET28a (Novagen Ltd.). In addition, the NdeI-BamHI fragment of soybean cDNA (HIDH) was also subcloned into the corresponding sites of the pET28a. The expression and purification of recombinant 2-hydroxyisoflavanone dehydratases were carried out by the following procedures (Non-Patent Document 12). The E. coli BL21 (DE3) cells transformed with the vector containing HIDM or HIDH were incubated up to OD600=0.4 in a LB/ampicillin medium supplemented with 20 ml of 50 μg/ml kanamycin or ampicillin at 30° C. IPTG was added to the culture so as to be a final concentration of 1.0 mM and the whole was incubated at 30° C. for six hours. The licorice HIDM and soybean HIDH were purified from the crude extracts of HIDM and HIDH-expression E. coli using HisTrap Kit (Amersham Biosciences Corporation), respectively.

[2] = target: T2, recombinant licorice HIDM (2-hydroxyisoflavanone dehydratase) (Glycyrrhiza echinata, UniProt Q5NUF4); assay: 2-hydroxyisoflavanone dehydratase assay, recombinant licorice HIDM; format: biochemical; conditions: for Specific activity, Licorice Recombinant protein: purified recombinant protein, rate of isoflavone production, mean ± SD of three experiments
T2 construct: The NdeI-BamHI fragment of the PCR product from licorice HIDM was cloned into the corresponding sites of pET28a; made in house; host or cells: E. coli BL21 (DE3), vector pET28a, purified with HisTrap Kit
T2 sequence (Q5NUF4 1-328): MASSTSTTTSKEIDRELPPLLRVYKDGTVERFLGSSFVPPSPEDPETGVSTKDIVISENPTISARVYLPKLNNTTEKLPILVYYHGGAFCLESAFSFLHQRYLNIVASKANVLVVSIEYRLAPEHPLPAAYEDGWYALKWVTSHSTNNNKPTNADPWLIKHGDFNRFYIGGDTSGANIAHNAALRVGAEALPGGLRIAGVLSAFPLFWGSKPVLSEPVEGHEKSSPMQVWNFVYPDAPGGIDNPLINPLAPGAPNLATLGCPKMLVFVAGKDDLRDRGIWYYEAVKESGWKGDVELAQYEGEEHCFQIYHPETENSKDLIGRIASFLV
Experimental: as §1
The assay of 2,5,7-trihydroxy-4′-methoxyisoflavanone dehyderatase (biochanin A synthetase) was carried out as follows. 2,5,7,4′-tetrahydroxyisoflavanone (10 nmol) dissolved in 2-methoxyethanol was incubated together with licorice HI4′OMT (1 μg) and 1 μmol of S-adenosyl-L-methionine (SAM) at 30° C. for 15 minutes.
as §2, §3, §4

[3] = tested on: 2-hydroxyisoflavanone dehydratase in cell-free extract of soybean seedling; assay: 2-hydroxyisoflavanone dehydratase assay, soybean crude extract; format: biochemical, Glycine max; conditions: for Specific activity, Soybean Crude extract: rate of isoflavone production, 30° C., 10 minutes, mean ± SD of three experiments
Experimental: (§5) All procedures were carried out at 4° C. Licorice cells (10 g) after elicitor treatment (for 24 hours) or 1-week old soybean raised from seeds (10 g) were homogenized in a mortar with 10 ml of a 100-mM potassium phosphate buffer (pH 7.5) containing 10% sucrose and 14 mM of 2-mercaptoethanol and with sea sand (2.5 g). The resulting homogenate was filtered through gauze and then centrifuged at 10,000×g for 10 minutes. Supernatant was mixed with 2.5 g of Dowex 1-X2 (equilibrated with a 100-mM potassium phosphate buffer), followed by standing for 20 minutes. The solution obtained from the filtration was fractionated with ammonium sulfate and a 30-80% saturated fraction was then demineralized through a Sephadex G-25 column and dissolved in a 100-mM potassium phosphate buffer (pH 7.5) containing 10% sucrose and 14-mM 2-mercaptoethanol, followed by being used in the assay (approximately 600 μg/ml of protein).
as §1, §2, §3

[4] = target: T3, 2-hydroxyisoflavanone dehydratase in cell-free extract of licorice cells (strain AK-1) (Glycyrrhiza echinata, UniProt Q5NUF4); assay: 2-hydroxyisoflavanone dehydratase assay, licorice crude extract; format: biochemical; conditions: for Specific activity, Licorice Crude extract: rate of isoflavone production, 30° C., 10 minutes, mean ± SD of three experiments
T3 construct: Licorice cells (10 g) after elicitor treatment (for 24 hours) or 1-week old soybean raised from seeds (10 g) were homogenized; endogenous in cells; host or cells: elicitor-treated licorice cultured cells (strain AK-1); 30-80% ammonium sulfate fraction of the cell-free extract
T3 sequence (Q5NUF4 1-328): T2 sequence (Q5NUF4 1-328)
Experimental: as §5, §1
as §2, with “(flow volume=0.8 ml/min) (Non-Patent Document 12) with a linear gradient elution for 40 minutes from 35% to 55% methanol in 3% aqueous acetic acid.” left out, “(flow rate=0.8 ml/min).” left out
as §3

[5] = tested on: 2-hydroxyisoflavanone dehydratase of P. lobata; conditions: Hakamatsuka et al., 1998; cited from earlier work
[6] = tested on: Carboxylesterase from pig liver; assay: 2-hydroxyisoflavanone dehydratase assay, carboxylesterase from pig liver; format: biochemical
Experimental: as §1
as §2, with “(flow volume=0.8 ml/min) (Non-Patent Document 12) with a linear gradient elution for 40 minutes from 35% to 55% methanol in 3% aqueous acetic acid.” left out, “(flow rate=0.8 ml/min).” left out
The specific carboxylesterase activities of recombinant licorice HIDM and soybean HIDH proteins were calculated from the generation rate of p-nitrophenol measured at 30° C. by an absorbance at 400 nm in 1.5 ml of a 50-mM Tris-HCl buffer containing 150 mM of NaCl and 750 nmol of p-nitrophenyl butyrate (Heymann 1981). […] Thermally-denatured (100° C., 10 minutes) licorice HIDM, soybean HIDH, and pig liver carboxylesterase protein were analyzed as negative controls, respectively.

[7] = tested on: Carboxylesterase from pig liver; assay: Carboxylesterase activity of pig liver carboxylesterase (positive control); format: biochemical; conditions: rate of p-nitrophenol production, 30° C., absorbance at 400 nm
Experimental: (§6) The specific carboxylesterase activities of recombinant licorice HIDM and soybean HIDH proteins were calculated from the generation rate of p-nitrophenol measured at 30° C. by an absorbance at 400 nm in 1.5 ml of a 50-mM Tris-HCl buffer containing 150 mM of NaCl and 750 nmol of p-nitrophenyl butyrate (Heymann 1981). Commercially-available pig liver carboxylesterase (Sigma Corporation) was used as a positive control. Thermally-denatured (100° C., 10 minutes) licorice HIDM, soybean HIDH, and pig liver carboxylesterase protein were analyzed as negative controls, respectively.

[8] = target: T4, recombinant soybean HIDH (Glycine max, UniProt Q5NUF3); assay: Carboxylesterase activity of recombinant soybean HIDH; format: biochemical
T4 construct: the NdeI-BamHI fragment of soybean cDNA (HIDH) was also subcloned into the corresponding sites of the pET28a; made in house; host or cells: E. coli BL21 (DE3), vector pET28a, purified with HisTrap Kit
T4 sequence (Q5NUF3 1-319): T1 sequence (Q5NUF3 1-319)
Experimental: as §6

[9] = target: T5, recombinant licorice HIDM (Glycyrrhiza echinata, UniProt Q5NUF4); assay: Carboxylesterase activity of recombinant licorice HIDM; format: biochemical
T5 construct: The NdeI-BamHI fragment of the PCR product from licorice HIDM was cloned into the corresponding sites of pET28a; made in house; host or cells: E. coli BL21 (DE3), vector pET28a, purified with HisTrap Kit
T5 sequence (Q5NUF4 1-328): T2 sequence (Q5NUF4 1-328)
Experimental: as §6

[10] = rate of p-nitrophenol production, 30° C., absorbance at 400 nm

COc1ccc(C2C(=O)c3ccc(O)cc3OC2O)cc1 (stereo not drawn) [2,7-dihydroxy-4′-methoxyisoflavanone]
Specific activity, Soybean Recombinant protein [1]: 0.90 ± 0.1 nkatal/mg
Specific activity, Licorice Recombinant protein [2]: 52.1 ± 1.5 nkatal/mg
Specific activity of licorice HIDM, times as high as to 2,7,4′-trihydroxyisoflavanone ([2]; recombinant licorice HIDM): 74 times
Specific activity, Soybean Crude extract [3]: 97.4 ± 10 pkatal/mg
Specific activity, Licorice Crude extract [4]: 123.0 ± 8 pkatal/mg

COc1ccc(C2C(=O)c3c(O)cc(O)cc3OC2O)cc1 (stereo not drawn) [2,5,7-trihydroxy-4′-methoxyisoflavanone]
Product detected by HPLC after incubation with licorice HIDM ([2]; substrate made with HI4′OMT and SAM, HIDM 1 μg, 30° C., 10 minutes): biochanin A was detected

O=C1c2ccc(O)cc2OC(O)C1c1ccc(O)cc1 (stereo not drawn) [2,7,4′-trihydroxyisoflavanone]
Specific activity of dehydratase of P. lobata [5]: 56.8 mkatal/kg protein
Specific activity, Soybean Recombinant protein [1]: 43.6 nkatal/mg and 43.6 ± 4 nkatal/mg
Specific activity, Licorice Recombinant protein [2]: 0.70 ± 0.08 nkatal/mg
Specific activity, Soybean Crude extract [3]: 197.3 ± 15 pkatal/mg
Activity (daidzein production), times as small as the production of formononetin ([4]; licorice extract, versus 2,7-dihydroxy-4′-methoxyisoflavanone): approximately 160 times
Specific activity, Licorice Crude extract [4]: 0.8 ± 0.03 pkatal/mg
Dehydration by carboxylesterase from pig liver [6]: did not dehydrate
Specific activity, Carboxylesterase from pig liver (dehydration) ([6]; rate of isoflavone production): 0 nkatal/mg

CCCC(=O)Oc1ccc([N+](=O)[O-])cc1 [p-nitrophenyl butyrate]
Specific carboxylesterase activity, Carboxylesterase from pig liver [7]: 425 ± 7 (f) nkatal/mg
Carboxylesterase activity of recombinant soybean dehydratase [8]: weak activity
Carboxylesterase activity of soybean HIDH as fraction of the pig liver enzyme [8]: approximately 1/50
Specific carboxylesterase activity, Soybean Recombinant protein [8, 10]: 7.20 ± 0.4 (f) nkatal/mg
Carboxylesterase activity of recombinant licorice dehydratase [9]: weak activity
Specific carboxylesterase activity, Licorice Recombinant protein [9, 10]: 0.32 ± 0.07 (f) nkatal/mg

O=C1c2c(O)cc(O)cc2OC(O)C1c1ccc(O)cc1 (stereo not drawn) [2,5,7,4′-tetrahydroxyisoflavanone]
Specific activity, Soybean Recombinant protein [1]: 3.55 ± 0.6 nkatal/mg
Product formation by soybean HIDH (HPLC) ([1]; recombinant soybean HIDH): catalyzed the production of genisein
Specific activity, Soybean Crude extract [3]: 19.6 ± 3 pkatal/mg
Production of genistein, level with respect to the production of daidzein ([3]; soybean extract): approximately 1/10
